Measurements as given in ChEMBL document CHEMBL1201862, “PubChem BioAssay data set” (2004).
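In this assay, cells in 96-well plates receive the compound at five concentrations for 48 hours. Endpoints are linearly interpolated between the surrounding concentrations. GI50: concentration for 50% inhibition of growth.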 Active and inactive are the calls of the source. No stated cut-off is given here; in the data, active = GI50 up to about 1.1 µM and inactive = higher.

Legend:
Experiment in all cases: NCI tumour cell line growth inhibition, 48 h
UO-31 = tested on: UO-31
HOP-92 = tested on: HOP-92
NCI-H460 = tested on: NCI-H460
UACC-257 = tested on: UACC-257
HOP-62 = tested on: HOP-62
SK-OV-3 = tested on: SK-OV-3
NCI-H23 = tested on: NCI-H23
SF-539 = tested on: SF-539
HL-60 = tested on: HL-60
EKVX = tested on: EKVX
TK-10 = tested on: TK-10
SN12C = tested on: SN12C
SNB-19 = tested on: SNB-19
SNB-75 = tested on: SNB-75
SW-620 = tested on: SW-620
HCT-15 = tested on: HCT-15
HT-29 = tested on: HT-29
Hs-578T = tested on: Hs-578T
T47D = tested on: T47D
LOX IMVI = tested on: LOX IMVI
786-0 = tested on: 786-0
COLO 205 = tested on: COLO 205
NCI-H226 = tested on: NCI-H226
BT-549 = tested on: BT-549
MCF7 = tested on: MCF7
DU-145 = tested on: DU-145
A498 = tested on: A498
SK-MEL-28 = tested on: SK-MEL-28
OVCAR-8 = tested on: OVCAR-8
U-251 = tested on: U-251
ACHN = tested on: ACHN
A549 = tested on: A549
KM12 = tested on: KM12
SK-MEL-2 = tested on: SK-MEL-2
PC-3 = tested on: PC-3
OVCAR-5 = tested on: OVCAR-5
MOLT-4 = tested on: MOLT-4
MDA-MB-435 = tested on: MDA-MB-435
RPMI-8226 = tested on: RPMI-8226
CAKI-1 = tested on: CAKI-1
MDA-N = tested on: MDA-N
SK-MEL-5 = tested on: SK-MEL-5
MDA-MB-231 = tested on: MDA-MB-231
IGROV-1 = tested on: IGROV-1
NCI/ADR-RES = tested on: NCI/ADR-RES
OVCAR-3 = tested on: OVCAR-3
CCRF-CEM = tested on: CCRF-CEM
K562 = tested on: K562
M14 = tested on: M14
SR = tested on: SR
HCT-116 = tested on: HCT-116
SF-295 = tested on: SF-295
SF-268 = tested on: SF-268
UACC-62 = tested on: UACC-62
HCC 2998 = tested on: HCC 2998
Malme-3M = tested on: Malme-3M
OVCAR-4 = tested on: OVCAR-4
RXF 393 = tested on: RXF 393

O=c1n(-c2ccccc2)c(=O)n2n1C1Cc3ccccc3C12 (stereo not given)
GI50 (UO-31): > 100 µM (inactive) | GI50 (HOP-92): > 100 µM (inactive) | GI50 (NCI-H460): > 100 µM (inactive) | GI50 (UACC-257): > 100 µM (inactive) | GI50 (HOP-62): > 100 µM (inactive) | GI50 (SK-OV-3): > 100 µM (inactive) | GI50 (NCI-H23): > 100 µM (inactive) | GI50 (SF-539): > 100 µM (inactive) | GI50 (HL-60): > 100 µM (inactive) | GI50 (EKVX): > 100 µM (inactive) | GI50 (TK-10): > 100 µM (inactive) | GI50 (SN12C): > 100 µM (inactive) | GI50 (SNB-19): > 100 µM (inactive) | GI50 (SNB-75): 69.5 µM (inactive) | GI50 (SW-620): > 100 µM (inactive) | GI50 (HCT-15): > 100 µM | GI50 (HT-29): > 100 µM (inactive) | GI50 (Hs-578T): 15 µM (inactive) | GI50 (T47D): > 100 µM (inactive) | GI50 (LOX IMVI): > 100 µM (inactive) | GI50 (786-0): > 100 µM (inactive) | GI50 (COLO 205): > 100 µM (inactive) | GI50 (NCI-H226): > 100 µM (inactive) | GI50 (BT-549): > 100 µM (inactive) | GI50 (MCF7): > 100 µM (inactive) | GI50 (DU-145): > 100 µM (inactive) | GI50 (A498): > 100 µM (inactive) | GI50 (SK-MEL-28): > 100 µM (inactive) | GI50 (OVCAR-8): > 100 µM (inactive) | GI50 (U-251): > 100 µM (inactive) | GI50 (ACHN): > 100 µM (inactive) | GI50 (A549): > 100 µM (inactive) | GI50 (KM12): > 100 µM (inactive) | GI50 (SK-MEL-2): > 100 µM (inactive) | GI50 (PC-3): > 100 µM (inactive) | GI50 (OVCAR-5): > 100 µM (inactive) | GI50 (MOLT-4): > 100 µM (inactive) | GI50 (MDA-MB-435): > 100 µM (inactive) | GI50 (RPMI-8226): > 100 µM (inactive) | GI50 (CAKI-1): > 100 µM (inactive) | GI50 (MDA-N): > 100 µM (inactive) | GI50 (SK-MEL-5): > 100 µM (inactive) | GI50 (MDA-MB-231): > 100 µM (inactive) | GI50 (IGROV-1): > 100 µM (inactive) | GI50 (NCI/ADR-RES): > 100 µM (inactive) | GI50 (OVCAR-3): > 100 µM (inactive) | GI50 (CCRF-CEM): > 100 µM (inactive) | GI50 (K562): > 100 µM (inactive) | GI50 (M14): > 100 µM (inactive) | GI50 (SR): > 100 µM (inactive) | GI50 (HCT-116): > 100 µM (inactive) | GI50 (SF-295): > 100 µM (inactive) | GI50 (SF-268): > 100 µM (inactive) | GI50 (UACC-62): > 100 µM (inactive)

O=c1n(N=[S+]([O-])(c2ccccc2)c2ccccc2)c(=O)n2n1C1C=CC2CC1
GI50 (UO-31): > 100 µM (inactive) | GI50 (HOP-92): > 100 µM (inactive) | GI50 (NCI-H460): > 100 µM (inactive) | GI50 (UACC-257): > 100 µM (inactive) | GI50 (HOP-62): > 100 µM (inactive) | GI50 (SK-OV-3): > 100 µM (inactive) | GI50 (NCI-H23): > 100 µM (inactive) | GI50 (SF-539): > 100 µM (inactive) | GI50 (HL-60): > 100 µM (inactive) | GI50 (EKVX): > 100 µM (inactive) | GI50 (TK-10): > 100 µM (inactive) | GI50 (SN12C): > 100 µM (inactive) | GI50 (SNB-19): > 100 µM (inactive) | GI50 (SNB-75): > 100 µM (inactive) | GI50 (SW-620): > 100 µM (inactive) | GI50 (HCT-15): > 100 µM | GI50 (HT-29): > 100 µM (inactive) | GI50 (Hs-578T): > 100 µM (inactive) | GI50 (T47D): > 100 µM (inactive) | GI50 (LOX IMVI): > 100 µM (inactive) | GI50 (786-0): > 100 µM (inactive) | GI50 (COLO 205): > 100 µM (inactive) | GI50 (NCI-H226): > 100 µM (inactive) | GI50 (BT-549): > 100 µM (inactive) | GI50 (MCF7): > 100 µM (inactive) | GI50 (DU-145): > 100 µM (inactive) | GI50 (A498): > 100 µM (inactive) | GI50 (SK-MEL-28): > 100 µM (inactive) | GI50 (OVCAR-8): > 100 µM (inactive) | GI50 (U-251): > 100 µM (inactive) | GI50 (ACHN): > 100 µM (inactive) | GI50 (A549): > 100 µM (inactive) | GI50 (KM12): > 100 µM (inactive) | GI50 (SK-MEL-2): > 100 µM (inactive) | GI50 (PC-3): > 100 µM (inactive) | GI50 (OVCAR-5): > 100 µM (inactive) | GI50 (MOLT-4): > 100 µM (inactive) | GI50 (MDA-MB-435): > 100 µM (inactive) | GI50 (RPMI-8226): > 100 µM (inactive) | GI50 (CAKI-1): > 100 µM (inactive) | GI50 (MDA-N): > 100 µM (inactive) | GI50 (SK-MEL-5): > 100 µM (inactive) | GI50 (MDA-MB-231): > 100 µM (inactive) | GI50 (IGROV-1): > 100 µM (inactive) | GI50 (NCI/ADR-RES): > 100 µM (inactive) | GI50 (OVCAR-3): > 100 µM (inactive) | GI50 (CCRF-CEM): > 100 µM (inactive) | GI50 (K562): > 100 µM (inactive) | GI50 (M14): > 100 µM (inactive) | GI50 (SR): > 100 µM (inactive) | GI50 (HCT-116): > 100 µM (inactive) | GI50 (SF-295): > 100 µM (inactive) | GI50 (SF-268): > 100 µM (inactive) | GI50 (UACC-62): > 100 µM (inactive)

CCC(=O)N/S(=N/S(=O)(=O)c1ccccc1)C(Cl)(Cl)Cl (stereo not given)
GI50 (UO-31): > 100 µM (inactive) | GI50 (HOP-92): > 100 µM (inactive) | GI50 (NCI-H460): > 100 µM (inactive) | GI50 (UACC-257): > 100 µM (inactive) | GI50 (HOP-62): > 100 µM (inactive) | GI50 (SK-OV-3): > 100 µM (inactive) | GI50 (NCI-H23): > 100 µM (inactive) | GI50 (SF-539): > 100 µM (inactive) | GI50 (HL-60): > 100 µM (inactive) | GI50 (EKVX): > 100 µM (inactive) | GI50 (TK-10): > 100 µM (inactive) | GI50 (SN12C): > 100 µM (inactive) | GI50 (SNB-19): > 100 µM (inactive) | GI50 (SNB-75): > 100 µM (inactive) | GI50 (SW-620): > 100 µM (inactive) | GI50 (HCT-15): > 100 µM | GI50 (HT-29): > 100 µM (inactive) | GI50 (Hs-578T): > 100 µM (inactive) | GI50 (HCC 2998): > 100 µM (inactive) | GI50 (T47D): > 100 µM (inactive) | GI50 (LOX IMVI): > 100 µM (inactive) | GI50 (786-0): > 100 µM (inactive) | GI50 (COLO 205): > 100 µM (inactive) | GI50 (NCI-H226): > 100 µM (inactive) | GI50 (BT-549): > 100 µM (inactive) | GI50 (MCF7): > 100 µM (inactive) | GI50 (DU-145): > 100 µM (inactive) | GI50 (A498): > 100 µM (inactive) | GI50 (SK-MEL-28): > 100 µM (inactive) | GI50 (OVCAR-8): > 100 µM (inactive) | GI50 (Malme-3M): > 100 µM (inactive) | GI50 (U-251): > 100 µM (inactive) | GI50 (ACHN): > 100 µM (inactive) | GI50 (A549): > 100 µM (inactive) | GI50 (KM12): > 100 µM (inactive) | GI50 (SK-MEL-2): > 100 µM (inactive) | GI50 (PC-3): > 100 µM (inactive) | GI50 (OVCAR-5): > 100 µM (inactive) | GI50 (MOLT-4): > 100 µM (inactive) | GI50 (MDA-MB-435): > 100 µM (inactive) | GI50 (RPMI-8226): > 100 µM (inactive) | GI50 (MDA-N): > 100 µM (inactive) | GI50 (SK-MEL-5): > 100 µM (inactive) | GI50 (MDA-MB-231): > 100 µM (inactive) | GI50 (IGROV-1): > 100 µM (inactive) | GI50 (NCI/ADR-RES): > 100 µM (inactive) | GI50 (OVCAR-3): > 100 µM (inactive) | GI50 (CCRF-CEM): > 100 µM (inactive) | GI50 (K562): > 100 µM (inactive) | GI50 (M14): > 100 µM (inactive) | GI50 (SR): > 100 µM (inactive) | GI50 (HCT-116): > 100 µM (inactive) | GI50 (SF-295): > 100 µM (inactive) | GI50 (SF-268): > 100 µM (inactive) | GI50 (UACC-62): > 100 µM (inactive) | GI50 (OVCAR-4): > 100 µM (inactive) | GI50 (RXF 393): > 100 µM (inactive)
